The values that follow come from ChEMBL document CHEMBL1131864, “Effects of sesquiterpenes and triterpenes from the rhizome of Alisma orientale on nitric oxide production in lipopolysaccharide-activated macrophages: absolute stereostructures of alismaketones-B 23-acetate and -C 23-acetate” (Bioorg Med Chem Lett, 1999).

The structures appear in SMILES notation.

What all share (format): functional
The species named for test [1] is Mus musculus. Briefly: Inhibition of nitric oxide production in LPS-activated mouse macrophages at a concentration of 100 uM.
For test [2], the species on record is Mus musculus. In words: Inhibition of nitric oxide production in LPS-activated mouse macrophages at a concentration of 10 uM.
The species named for test [3] is Mus musculus. Briefly: Inhibition of nitric oxide production in LPS-activated mouse macrophages at a concentration of 30 uM.
The species entered for test [4] is Mus musculus. Briefly: Concentration required for inhibition of nitric oxide production in LPS-activated mouse macrophages.
For test [5], the species on record is Mus musculus. Briefly: Inhibition of nitric oxide production in LPS-activated mouse macrophages at a concentration of 3 uM.
Test [6] is filed under the species Mus musculus. In words: Inhibition of nitric oxide production in LPS-activated mouse macrophages at a concentration of 1 uM.

A word on the inhibition: it is the change of the read-out against control, counted positive when it falls. Broadly, the IC50 is the concentration at which inhibition is half-maximal. A lower IC50 goes with greater potency in that assay. For the molecule `CC(C)C1=CC2C(CC[C@]2(C)O)[C@@](O)(CO)CC1` (stereo partly drawn), the inhibition at 100 µM in test [1] came to 64.1%. Moreover, in test [2], the inhibition at 10 µM worked out at 4.8%. For the same molecule, the inhibition at 30 µM in test [3] stood at 21.2%. Also, in test [4], half-maximal inhibition (IC50) required 68 µM. The inhibition at 3 µM in test [5] was -3.1%. Besides, the inhibition at 1 µM in test [6] was -4.3%.

With `CC(=O)O[C@@H](C[C@@H](C)C1=C2[C@H](O)[C@H](O)C3[C@@]4(C)CCC(=O)C(C)(C)C4CC[C@]3(C)[C@@]2(C)CC1)[C@H]1OC1(C)C` (stereo partly drawn), the inhibition at 100 µM in test [1] was determined as 116%. Moreover, the inhibition at 10 µM in test [2] is 32.3%. Moreover, the inhibition at 30 µM in test [3] stood at 117%. For the same molecule, the IC50 in test [4] was > 10 µM. Moreover, in test [5], the inhibition at 3 µM is 4%. For the same molecule, the inhibition at 1 µM in test [6] came out at 5.9%.

As for `C[C@H](C[C@H](O)[C@@H](O)C(C)(C)O)C1=C2C[C@H](O)C3[C@@]4(C)CCC(=O)C(C)(C)C4CC[C@]3(C)[C@@]2(C)CC1` (stereo partly drawn), the inhibition at 100 µM in test [1] is 114%. Moreover, the inhibition at 10 µM in test [2] came out at 26.2%. Moreover, the inhibition at 30 µM in test [3] worked out at 84.2%. For the same molecule, in test [4], the IC50 is > 10 µM. The inhibition at 3 µM in test [5] worked out at 21.4%. Moreover, the inhibition at 1 µM in test [6] is 0.2%.

Consider `CC(C)[C@]12CC[C@](C)(O1)C1CC[C@](C)(S(=O)(=O)O)C1[C@@H]2O` (stereo partly drawn), for which the inhibition at 100 µM in test [1] is 24.7%. For the same molecule, the inhibition at 10 µM in test [2] worked out at 4.3%. Further, the inhibition at 30 µM in test [3] came to 12.6%. The IC50 in test [4] was > 100 µM. The inhibition at 3 µM in test [5] is -2.1%. The inhibition at 1 µM in test [6] is 3.3%.

Regarding `CC(=O)O[C@@H](C[C@@H](C)[C@]12O[C@H]1C[C@@]1(C)C2=CC(=O)C2[C@@]3(C)CCC(=O)C(C)(C)C3CC[C@@]21C)[C@H]1OC1(C)C` (stereo partly drawn), the inhibition at 100 µM in test [1] came to 114%. In test [2], the inhibition at 10 µM came out at 31.1%. Besides, in test [3], the inhibition at 30 µM was 83.6%. Further, in test [4], the IC50 was > 10 µM. For the same molecule, in test [5], the inhibition at 3 µM came to 11.9%. Moreover, the inhibition at 1 µM in test [6] turned out to be 9.9%.

Regarding `C=C1CC[C@@]2(C(C)C)O[C@H]2C2C1CC[C@]2(C)O` (stereo partly drawn), the inhibition at 100 µM in test [1] was 74.9%. Besides, the inhibition at 10 µM in test [2] came to 14.1%. In test [3], the inhibition at 30 µM was found to be 29.2%. In test [4], this molecule displayed an IC50 of 53 µM. In test [5], the inhibition at 3 µM turned out to be 5%. Besides, the inhibition at 1 µM in test [6] is 0.9%.

Consider `CC(=O)O[C@@H](C[C@@H](C)C(=O)CC[C@@]1(C)C(=O)C=CC2[C@@]3(C)CCC(=O)C(C)(C)C3CC[C@@]21C)[C@H]1OC1(C)C` (stereo partly drawn), for which the inhibition at 100 µM in test [1] was 114%. In addition, the inhibition at 10 µM in test [2] is 22.7%. In addition, the inhibition at 30 µM in test [3] was determined as 61%. Also, the IC50 in test [4] is 23 µM. Also, the inhibition at 3 µM in test [5] is 10.2%. Further, the inhibition at 1 µM in test [6] worked out at 2.9%.

`C=C1/C=C/[C@H](C(C)C)CC/C(C)=C/CC1` [GERMACRENE D]: the inhibition at 100 µM in test [1] was 68.5%. Also, in test [2], the inhibition at 10 µM turned out to be 16.7%. In addition, the inhibition at 30 µM in test [3] was 29%. The molecule further came in with an IC50 in test [4] of 58 µM. Further, in test [5], the inhibition at 3 µM is 1.6%. The inhibition at 1 µM in test [6] was 7.5%.

As for `COC(=O)C(C)(C)C1CC[C@@]2(C)C3[C@H](CC4=C([C@H](C)C[C@H](OC(C)=O)[C@H]5OC5(C)C)CC[C@@]42C)OC(=O)C[C@@]13C` (stereo partly drawn), in test [1], the inhibition at 100 µM came to 110%. Further, the inhibition at 10 µM in test [2] came to 49.2%. Besides, the inhibition at 30 µM in test [3] was determined as 84.2%. For the same molecule, the IC50 in test [4] was found to be 10 µM. In test [5], the inhibition at 3 µM came out at 17.2%. Also, in test [6], the inhibition at 1 µM is -2.6%.

Consider `C[C@@H]1CC([C@H]2OC2(C)C)OC2C[C@@]3(C)C(=C21)CCC1[C@@]2(C)CCC(=O)C(C)(C)C2CC[C@@]13C` (stereo partly drawn), for which the inhibition at 100 µM in test [1] is 100%. Also, in test [2], the inhibition at 10 µM was 31.2%. Further, in test [3], the inhibition at 30 µM worked out at 84.2%. In test [4], this molecule registered an IC50 of 12 µM. For the same molecule, in test [5], the inhibition at 3 µM was 21.7%. Also, the inhibition at 1 µM in test [6] is -5.1%.

Turning to `CC(=O)O[C@@H](C[C@@H](C)C1=C2C=CC3[C@@]4(C)CCC(=O)C(C)(C)C4CC[C@]3(C)[C@@]2(C)CC1=O)[C@H]1OC1(C)C` (stereo partly drawn), in test [1], the inhibition at 100 µM is 104%. Further, the inhibition at 10 µM in test [2] was found to be 54.8%. Moreover, the inhibition at 30 µM in test [3] was 86.5%. In test [4], this molecule displayed an IC50 of 8.4 µM. For the same molecule, the inhibition at 3 µM in test [5] was 27.9%. Also, the inhibition at 1 µM in test [6] was found to be 17.8%.

On to `CC(=O)O[C@H]([C@@H](O)C[C@@H](C)C1=C2C[C@H](O)C3[C@@]4(C)CCC(=O)C(C)(C)C4CC[C@]3(C)[C@@]2(C)CC1)C(C)(C)O` (stereo partly drawn), for which the inhibition at 100 µM in test [1] is 112%. Besides, in test [2], the inhibition at 10 µM was 13.4%. Besides, in test [3], the inhibition at 30 µM worked out at 71%. In addition, in test [4], the IC50 was > 10 µM. Besides, in test [5], the inhibition at 3 µM came to 6.4%. Moreover, the inhibition at 1 µM in test [6] is -2.9%.

`CC(C)C1=CC2C(CC[C@]2(C)O)[C@](C)(O)CC1` (stereo partly drawn): in test [1], the inhibition at 100 µM was found to be 33.1%. Moreover, the inhibition at 10 µM in test [2] is 0.4%. Besides, the inhibition at 30 µM in test [3] worked out at 12%. The IC50 in test [4] was > 100 µM. Besides, in test [5], the inhibition at 3 µM was -1.8%. Also, in test [6], the inhibition at 1 µM is -2.5%.
